This note sets out measurements from patent US9505740B2, “Cyclic amine derivative and pharmaceutical use thereof” (Toray Industries, Inc., priority 2013, dated 2016).

Assay [1] deals with mouse partial sciatic nerve ligation model. Briefly: Mouse partial sciatic nerve ligation model (Seltzer model), von Frey test. In kind it is in vivo. Particulars: Day 7, vs physiological saline group.
The test system of assay [2] is fibromyalgia syndrome model rats. Briefly: Fibromyalgia syndrome model in rats (acidic saline), allodynia by von Frey filament. The class given is in vivo, rat. Particulars: intravenous administration; Example 13 3 and 10 mg/kg, pregabalin 10 mg/kg; 30 minutes after administration; vs acidic saline-vehicle group. The source says:
Using a fibromyalgia syndrome model in rats by which fibromyalgia syndrome can be evaluated, the analgesic action of a cyclic amine derivative (I) or a prodrug thereof or a pharmacologically acceptable salt thereof was investigated.
As the cyclic amine derivative (I) or a pharmacologically acceptable salt thereof, the compound of Example 13 was used for evaluation. As the prodrug of a cyclic amine derivative (I) or a pharmacologically acceptable salt thereof, the compound of Example 38 was used for evaluation. The compound of Example 38 is a hydrochloride of a prodrug obtained by esterifying the carboxyl group of the compound of Example 39 with an ethyl group.
To prepare a fibromyalgia syndrome model rat (Sluka et al., Journal of Pharmacology and Experimental Therapeutics, vol. 302, p. 1146-50, 2002; Nagakura et al., Pain, vol. 146, p. 26-33, 2009; Sluka et al., Pain, vol. 146, p. 3-4, 2009), which is generally employed widely in basic research for fibromyalgia syndrome, acidic saline (100 μL) adjusted to pH4.0 was intramuscularly injected to the gastrocnemius muscle of the right hind paw of Crl: CD(SD) rat (6 to 7 weeks old, male; from CHARLES RIVER LABORATORIES JAPAN, INC.) under continuous inhalation anesthesia with isoflurane, twice (once in each day of Day 1 and Day 6, wherein Day 1 was the date on which the acidic saline was initially administrated). The rats thus prepared were raised in a breeding room controlled at an indoor temperature of 21 to 25° C. and an indoor humidity of 40 to 70% under the conditions of voluntary intake of food and water. In the same manner, rats to which physiological saline in place of acidic saline was intramuscularly injected were raised. The rats thus raised and not afflicted with fibromyalgia syndrome (“physiological saline-vehicle” group in FIGS. 23 and 24) were also used in the experiment.
Day 7 after the initial administration of acidic saline, allodynia in each rat was measured. […] Note that, measurement of allodynia was performed by use of a von Frey filament (from North Coast Medical) in accordance with the method described in a known literature (Chaplan et al., Journal of Neuroscience Methods, vol. 53, p. 55-63, 1994). […]
The compound of Example 13 (3 and 10 mg/kg) was dissolved in physiological saline and then administered (intravenous administration) to fibromyalgia syndrome model rats through the tail vein (“acidic saline—the compound of Example 13” in FIG. 23). […] In thirty minutes after the intravenous administration, allodynia in individual rats was measured to evaluate an analgesic action. […]

The mark [3] stands for this setting: intraventricular administration, 10 μg/site, 15, 30 and 60 minutes after administration, p<0.05.
Setting [4] is: intravenous administration (tail vein), Examples 2, 4: 0.1 to 10 mg/kg, 13: 0.01 to 1 mg/kg, 18, 22: 0.1 and 1 mg/kg, 25, 27, 29, 31, 33, 66, 68, 70: 0.1 mg/kg, pregabalin 1 or 3 mg/kg.

Counter-ions that a name gives are not always drawn.

Take `CC(=O)NC1CCN(C(=O)CCc2nccn2C)CC1.Cl` [Example 10, N-(1-(3-(1-methyl-1H-imidazol-2-yl)propanoyl)piperidin-4-yl)acetamide hydrochloride]: the “analgesic action, total score in the von Frey test” value (from here on “analgesic action, total score”) in assay [1] (setting [3]) was “statistically significant analgesic action”. In the case of `CN(C)[C@@H]1CCCN(C(=O)CCc2nccn2CC(=O)O)C1.Cl` [Example 31, 2-(2-(3-((R)-3-dimethylaminopiperidin-1-yl)-3-oxopropyl)-1H-imidazol-1-yl)acetic acid hydrochloride], the “analgesic action, total score” value in assay [1] (setting [4]) is given as “statistically significant analgesic action”. For `CN(C)C1CCN(C(=O)CCc2nccn2CCN)CC1` [Example 15, 3-(1-(2-aminoethyl)-1H-imidazol-2-yl)-1-(4-(dimethylamino)piperidin-1-yl)propan-1-one hydrochloride], in assay [1] (setting [3]), the “analgesic action, total score” value is reported as “statistically significant analgesic action”. As for `CN(C)[C@H]1CCN(C(=O)CCc2nccn2CCC(=O)O)C1.Cl` [Example 70, (S)-3-(2-(3-(3-(dimethylamino)pyrrolidin-1-yl)-3-oxopropyl)-1H-imidazol-1-yl)propanoic acid hydrochloride], the “analgesic action, total score” value in assay [1] (setting [4]) is recorded as “statistically significant analgesic action”. In the case of `CN1CCN(C2CCN(C(=O)CCc3nccn3CC(=O)O)CC2)CC1.Cl` [Example 29, 2-(2-(3-(4-(1-methylpiperazin-4-yl)piperidin-1-yl)-3-oxopropyl)-1H-imidazol-1-yl)acetic acid hydrochloride], in assay [1] (setting [4]), the “analgesic action, total score” value was “statistically significant analgesic action”.

For the compound `CNC1CCN(C(=O)CCc2nccn2C)CC1` [Example 2, 3-(1-methyl-1H-imidazol-2-yl)-1-(4-(methylamino)piperidin-1-yl)propan-1-one hydrochloride], the “analgesic action, total score” value in assay [1] (setting [4]) and in assay [1] (setting [3]) was “statistically significant analgesic action” in each case.

Take `CC(=O)N(C)C1CCN(C(=O)CCc2nccn2C)CC1.Cl` [Example 4, N-methyl-N-(1-(3-(1-methyl-1H-imidazol-2-yl)propanoyl)piperidin-4-yl)acetamide hydrochloride]: the “analgesic action, total score” value in assay [1] (setting [4]) and in assay [1] (setting [3]) was “statistically significant analgesic action” each time.

`CC(=O)NCCN(C)C1CCN(C(=O)CCc2nccn2C)CC1` [Example 6, N-(2-(methyl(1-(3-(1-methyl-1H-imidazol-2-yl)propanoyl)piperidin-4-yl)amino)ethyl)acetamide hydrochloride]: the “analgesic action, total score” value in assay [1] (setting [3]) is reported as “statistically significant analgesic action”. For the compound `CCN(C)C1CCN(C(=O)CCc2nccn2CC(=O)O)CC1.Cl` [Example 18, 2-(2-(3-(4-(ethylmethylamino)piperidin-1-yl)-3-oxopropyl)-1H-imidazol-1-yl)acetic acid hydrochloride], in assay [1] (setting [4]), the “analgesic action, total score” value is on record as “statistically significant analgesic action”. On to `Cl.O=C(O)Cn1ccnc1CCC(=O)N1CCC(N2CCOCC2)CC1` [Example 27, 2-(2-(3-(4-(morpholin-4-yl)piperidin-1-yl)-3-oxopropyl)-1H-imidazol-1-yl)acetic acid hydrochloride], for which the “analgesic action, total score” value in assay [1] (setting [4]) is on record as “statistically significant analgesic action”. The same measure, in the same setting: the value for `CCN(CC)C1CCN(C(=O)CCc2nccn2CC(=O)O)CC1.Cl` [Example 22, 2-(2-(3-(4-(diethylamino)piperidin-1-yl)-3-oxopropyl)-1H-imidazol-1-yl)acetic acid hydrochloride] was “statistically significant analgesic action”; that for `CN(C)C1CCN(C(=O)CCc2nccn2CCC(=O)O)CC1` [Example 66, 3-(2-(3-(4-(dimethylamino)piperidin-1-yl)-3-oxopropyl)-1H-imidazol-1-yl)propanoic acid hydrochloride] was “statistically significant analgesic action”; that for `CN(C)[C@H]1CCN(C(=O)CCc2nccn2CC(=O)O)C1.Cl` [Example 33, (S)-2-(2-(3-(3-(dimethylamino)pyrrolidin-1-yl)-3-oxopropyl)-1H-imidazol-1-yl)acetic acid hydrochloride] was “statistically significant analgesic action”. In the case of `CN(C)C1CCN(C(=O)CCc2nccn2CC(=O)O)CC1` [Example 13, 2-(2-(3-(4-(dimethylamino)piperidin-1-yl)-3-oxopropyl)-1H-imidazol-1-yl)acetic acid hydrochloride], the “analgesic action, total score” value in assay [1] (setting [4]) and in assay [1] (setting [3]) was “statistically significant analgesic action” throughout. In assay [2], the “allodynia, 50% response threshold (mean value of the right hind paw and the left hind paw)” value is listed as “statistically significantly improved”. For `CN(C)[C@H]1CCCN(C(=O)CCc2nccn2CCC(=O)O)C1.Cl` [Example 68, 3-(2-(3-((S)-3-dimethylaminopiperidin-1-yl)-3-oxopropyl)-1H-imidazol-1-yl)propanoic acid hydrochloride], in assay [1] (setting [4]), the “analgesic action, total score” value was “statistically significant analgesic action”. As for `CN(C)C1CCN(C(=O)CCc2nccn2CCO)CC1` [Example 12, 1-(4-(dimethylamino)piperidin-1-yl)-3-(1-(2-hydroxyethyl)-1H-imidazol-2-yl)propan-1-one hydrochloride], in assay [1] (setting [3]), the “analgesic action, total score” value is on record as “statistically significant analgesic action”. With `Cl.O=C(O)Cn1ccnc1CCC(=O)N1CCC(N2CCCCC2)CC1` [Example 25, 2-(2-(3-(4-(piperidin-1-yl)piperidin-1-yl)-3-oxopropyl)-1H-imidazol-1-yl)acetic acid hydrochloride], the “analgesic action, total score” value in assay [1] (setting [4]) is “statistically significant analgesic action”.
